Data as given in patent US20140011755A1, “Cardiac Glycosides for Treating Autoimmune Disease” (Department of Veterans Affairs, priority 2010, published 2014).
Read-outs that look alike come from different tables or passages of the source.

Experiments:
[1] = Human, oral; Smith, TW (1970); cited from earlier work
[2] = test system: collagen-induced arthritis (CIA) joints; format: in vivo, DBA1/J mice; settings: cross-sectioned ankle joints, CIA prevention groups
Method: FIG. 7. Cardiac glycosides reduce joint pathology in the CIA mouse model for rheumatoid arthritis. Blinded scoring was performed on histologic sections of joints harvested from mice at the end of a CIA prevention study (A-C). Joints derived from three representative mice belonging to each prevention group (A-C) were decalcified, fixed and stained with tolidine blue, followed by scoring by an examiner blinded to treatment status for the severity of synovitis (inflammation), pannus (growth of the synovial lining), and erosions of bone. (D-G) Joints derived from three representative mice belonging to each prevention group were decalcified, fixed, and stained with hematoxylin and eosin. Cross-sectioned ankle joints from vehicle (D), digitoxin (E), ouabain (F) and proscillaridin (G) treated mice are presented. Error bars represent SEM, and asterisks indicate P-values less than 0.05 by Mann-Whitney test.
In treatment studies, mice were randomly enrolled in treatment groups and treatment commenced when the average clinical score was at or above 2. […] Daily dosing commenced upon enrollment at the abovementioned concentrations. […] Double-blinded histopathology scoring was conducted of cross-sectioned joints taken from cardiac glycoside and vehicle recipients. […] The results obtained from these animal studies indicate that cardiac glycosides are effective at reducing the clinical manifestations of disease and reducing joint pathology in mice with collagen arthritis.
The effects of the different cardiac glycoside treatments on CIA pathology was analyzed by histological scoring. Inflammatory cell infiltrate, synovial hyperplasia, pannus formation and articular cartilage and bone deterioration were evaluated in sectioned paws of treated mice at specific time-points throughout the disease course. […] The ELISA was developed and read using BD ELISA development kit. […]

[3] = test system: B cells from CIA mice; assay: RT-PCR cytokine gene expression in cells purified from CIA mice; format: cell-based; settings: 33 nM and 100 nM, 45 minutes
Method: IL-10 (FIG. 20 A) and TGFβ1 (FIG. 20 B) levels were quantified. Samples were normalized against Ywhaz1 and Hprt1 housekeeping genes. […] Samples were examined in triplicates and the error bars represent the SEM. […] After 30 minutes, cells were washed, lysed and mRNA was isolated with Trizol (Invitrogen). RT-PCR was performed on mRNA and samples were normalized against housekeeping genes, Ywhaz1 and Hprt1. Data represent the average fold change in IL-10 gene expression compared to media alone. Error bars represent SEM of triplicates.
RT-PCR was performed and TGFβ1, IL-10 and IL-6 mRNA levels were quantified. Sample cDNA levels were normalized against housekeeping genes Ywhaz1 and Hprt1. Data represent the average fold change in IL-10 gene expression compared to media alone. Error bars represent SEM of triplicates.
RT-PCR was performed and TGFβ1 and IL-10 levels were quantified and samples were normalized against Ywhaz1 and Hprt1. Data represent the average fold gene induction of triplicates and error bars represent SEM.

[4] = test system: MRL-Ipr splenic B cells; assay: ANA production by MRL-Ipr splenic B cells in vitro; format: cell-based, mice; settings: 2×10^5 vehicle-treated MRL-Ipr splenic B cells, 33 nM
[5] = test system: splenocytes derived from mice with CIA; assay: CIA splenocyte proliferation (3H-thymidine incorporation); format: cell-based
Method: (§1) Activity was monitored by ^3H-thymidine incorporation as a read-out for proliferation. […] Cell type(s) in the splenocyte population responsive to therapeutic concentrations of cardiac glycoside were determined by identifying the population of cells that responded to a dose-dependent decrease in activity in the presence of stimulant, defined as ligand(s) binding to cognate receptor(s). Activity was analyzed by: ^3H-thymidine or BrdU incorporation to monitor proliferation or by ELISA to monitor cytokine production. Splenic T lymphocytes were isolated by negative selection (MACS, Miltinyi Biotec) and are stimulated with PMA, ConA or through the TCR with anti-CD3/anti-CD28 Dynabeads (Invitrogen) and collagen II (all non-TNFR receptors/pathways). […] Peritoneal and bone marrow-derived macrophages were isolated from CIA mice in the presence of M-CSF growth factor and were stimulated with TNF and CD40 ligand (CD40L). […] Splenic B lymphocytes were isolated by negative selection (MACS, Miltinyi Biotec) and were stimulated with BAFF (BLyS), CD40L or through the BCR with anti-IgM u-chain specific antibodies.

[6] = Serum concentration obtained with experimental dosing regimen, mouse; format: in vivo; settings: 0.3 mg/kg per diem, i.p., experimentally determined
Method: Dosing regimens in humans vary according to the cardiac glycoside and constitution thereof. Table 3 depicts representative dosing regimens reported in the literature compared to experimental regiments used in mice that are representative of human dosing. Successful dosing detailed in this application includes but is not limited to 0.03-0.4 mg/kg., or from 0.001 to 5 mg/kg.

[7] = test system: IL-10 cytokine secretion from B cells; assay: IL-10 secretion (ELISA) by splenic B cells from treated MRL-Ipr mice; format: cell-based
Method: FIG. 19. […] MACS-purified B cells from vehicle or digitoxin-treated 23 week-old female MRL-Ipr mice were harvested from the spleen. 2×10^5 B cells were incubated either media, mifespristone (0.8 nM), Jak inhibitor I (15 nM), STAT3 inhibitor VI (500 μM) or dasatinib (1.1 nM) for 60 minutes, washed and incubated for 48 hr at 37° C. Cell supernatant was collected and ELISAs were used to quantify the amount of secreted IL-10 cytokine in each condition. Data represent the average of triplicate conditions and error bars represent the SEM. Statistical significance was performed using the student t-test.

[8] = target: T1, CD40 (Mus musculus, UniProt P27512); assay: CD40-mediated B cell proliferation (anti-CD40, CD40L); format: cell-based, mice; settings: pre-treatment of B cells
T1 construct: Peritoneal and bone marrow-derived macrophages were isolated from CIA mice; endogenous in cells; host or cells: peritoneal and bone marrow-derived macrophages from CIA mice
T1 sequence (P27512 20-289): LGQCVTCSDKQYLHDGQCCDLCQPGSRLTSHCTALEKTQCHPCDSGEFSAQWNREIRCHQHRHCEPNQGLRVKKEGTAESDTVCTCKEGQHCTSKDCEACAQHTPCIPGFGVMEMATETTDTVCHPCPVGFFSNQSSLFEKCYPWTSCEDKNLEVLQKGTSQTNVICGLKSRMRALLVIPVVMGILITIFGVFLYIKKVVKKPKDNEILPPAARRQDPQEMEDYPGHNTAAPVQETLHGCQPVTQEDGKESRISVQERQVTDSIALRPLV
Method: as §1

C[C@H]1O[C@@H](O[C@H]2[C@@H](O)C[C@H](O[C@H]3[C@@H](O)C[C@H](O[C@H]4CC[C@@]5(C)[C@H](CC[C@@H]6[C@@H]5CC[C@]5(C)[C@@H](C7=CC(=O)OC7)CC[C@]65O)C4)O[C@@H]3C)O[C@@H]2C)C[C@H](O)[C@@H]1O [Digitoxin, digitoxin]
Serum conc. [1]: 17 ng/mL
immune cell infiltrate into the joints (hematoxylin and eosin) [2]: decreased amounts of immune cell infiltrate
IL-6 mRNA expression in B cells [3]: inhibit IL-6 expression
IL-10 mRNA expression in B cells [3]: induce
TGFβ1 mRNA expression in B cells [3]: induce
ANA production in vitro at 72 hours [4]: blockade of autoantibody production
proliferation of unstimulated or collagen II-stimulated splenocytes [5]: inhibits the proliferation
Serum conc. [6]: 19 ng/mL
secreted IL-10 cytokine ([7]; 2×10^5 B cells from vehicle or digitoxin-treated 23 week-old mice, 48 hr, ELISA): induces IL-10 cytokine secretion
mechanism dependence of IL-10 secretion (inhibitor pre-incubation) ([7]; mifespristone 0.8 nM, Jak inhibitor I 15 nM, STAT3 inhibitor VI 500 μM or dasatinib 1.1 nM for 60 minutes): dependent on steroid receptors, Jak activity, and STAT3 activity, but not BCR-ABL or Src-like Family Kinase activity
CD40L-mediated B cell proliferation [8]: inhibited CD40L-mediated proliferation
anti-CD40 mediated B cell proliferation [8]: prevented anti-CD40 mediated B cell proliferation
